This note sets out measurements from ChEMBL document CHEMBL1152842, “Synthesis, Raman, FT-IR, NMR spectroscopic data and antimicrobial activity of mixed aza-oxo-thia macrocyclic compounds” (2009).

Holding throughout (type): functional
The test system of experiment [1] is Pseudomonas aeruginosa. Briefly: Antibacterial activity against Pseudomonas aeruginosa ATCC 27853 at 10 units after 24 hrs by disk diffusion method.
Experiment [2] has as its system Mycolicibacterium smegmatis. The experiment can be described thus: Antibacterial activity against Mycobacterium smegmatis CCM 2067 at 10 units after 24 hrs by disk diffusion method.
The subject of experiment [3] is Proteus vulgaris. Briefly: Antibacterial activity against Proteus vulgaris ATCC 8427 at 10 units after 24 hrs by disk diffusion method.
Experiment [4] has as its system Escherichia coli. Briefly: Antibacterial activity against Escherichia coli ATCC 11230 at 10 units after 24 hrs by disk diffusion method.
Experiment [5] concerns Staphylococcus aureus. The experiment can be described thus: Antibacterial activity against Staphylococcus aureus ATCC 6538 at 10 units after 24 hrs by disk diffusion method.
In experiment [6] the test system is Bacillus cereus. The experiment can be described thus: Antibacterial activity against Bacillus cereus ATCC 7064 at 10 units after 24 hrs by disk diffusion method.
For experiment [7], the system named is Listeria monocytogenes. The experiment can be described thus: Antibacterial activity against Listeria monocytogenes ATCC 15313 at 10 units after 24 hrs by disk diffusion method.
The test system of experiment [8] is Micrococcus luteus. The experiment can be described thus: Antibacterial activity against Micrococcus luteus La 2971 at 10 units after 24 hrs by disk diffusion method.
Experiment [9] relates to Klebsiella pneumoniae. The experiment can be described thus: Antibacterial activity against Klebsiella pneumoniae UC57 at 10 units after 24 hrs by disk diffusion method.
Experiment [10] has as its system Micrococcus luteus. Briefly: Antibacterial activity against Micrococcus luteus La 2971 at 1 ug after 24 hrs by disk diffusion method. The following applies: read-out: IZ.
Experiment [11] has as its system Klebsiella pneumoniae. Briefly: Antibacterial activity against Klebsiella pneumoniae UC57 at 1 ug after 24 hrs by disk diffusion method. The settings on record: read-out: IZ.
Experiment [12] deals with Escherichia coli. The experiment can be described thus: Antibacterial activity against Escherichia coli ATCC 11230 at 1 ug after 24 hrs by disk diffusion method. The following applies: ATCC 11230, 24 h, read-out: IZ.
For experiment [13], the system named is Listeria monocytogenes. Briefly: Antibacterial activity against Listeria monocytogenes ATCC 15313 at 1 ug after 24 hrs by disk diffusion method. The following applies: ATCC 15313, 24 h, read-out: IZ.
For experiment [14], the system named is Pseudomonas aeruginosa. Briefly: Antibacterial activity against Pseudomonas aeruginosa ATCC 27853 at 1 ug after 24 hrs by disk diffusion method. The following applies: ATCC 27853, 24 h, read-out: IZ.
Experiment [15] concerns Bacillus cereus. The experiment can be described thus: Antibacterial activity against Bacillus cereus ATCC 7064 at 1 ug after 24 hrs by disk diffusion method. The following applies: ATCC 7064, 24 h, read-out: IZ.
In experiment [16] the test system is Proteus vulgaris. Briefly: Antibacterial activity against Proteus vulgaris ATCC 8427 at 1 ug after 24 hrs by disk diffusion method. The settings on record: ATCC 8427, 24 h, read-out: IZ.
For experiment [17], the system named is Mycolicibacterium smegmatis. The experiment can be described thus: Antibacterial activity against Mycobacterium smegmatis CCM 2067 at 1 ug after 24 hrs by disk diffusion method. The following applies: CCM 2067, 24 h, read-out: IZ.
Experiment [18] deals with Staphylococcus aureus. The experiment can be described thus: Antibacterial activity against Staphylococcus aureus ATCC 6538 at 1 ug after 24 hrs by disk diffusion method. The settings on record: ATCC 6538, 24 h, read-out: IZ.
The test system of experiment [19] is Klebsiella pneumoniae. The experiment can be described thus: Antibacterial activity against Klebsiella pneumoniae UC57 after 24 hrs by twofold serial dilution method.
Experiment [20] has as its system Mycolicibacterium smegmatis. Briefly: Antibacterial activity against Mycobacterium smegmatis CCM 2067 after 24 hrs by twofold serial dilution method.
Experiment [21] relates to Micrococcus luteus. The experiment can be described thus: Antibacterial activity against Micrococcus luteus La 2971 after 24 hrs by twofold serial dilution method.
Experiment [22] has as its system Escherichia coli. Briefly: Antibacterial activity against Escherichia coli ATCC 11230 after 24 hrs by twofold serial dilution method.
Experiment [23] has as its system Listeria monocytogenes. The experiment can be described thus: Antibacterial activity against Listeria monocytogenes ATCC 15313 after 24 hrs by twofold serial dilution method.
The test system of experiment [24] is Proteus vulgaris. The experiment can be described thus: Antibacterial activity against Proteus vulgaris ATCC 8427 after 24 hrs by twofold serial dilution method.
Experiment [25] relates to Staphylococcus aureus. Briefly: Antibacterial activity against Staphylococcus aureus ATCC 6538 after 24 hrs by twofold serial dilution method.
Experiment [26] deals with Bacillus cereus. Briefly: Antibacterial activity against Bacillus cereus ATCC 7064 after 24 hrs by twofold serial dilution method.
Experiment [27] concerns Pseudomonas aeruginosa. The experiment can be described thus: Antibacterial activity against Pseudomonas aeruginosa ATCC 27853 after 24 hrs by twofold serial dilution method.
Experiment [28] has as its system Kluyveromyces marxianus. The experiment can be described thus: Antifungal activity against Kluyveromyces fragilis NRRL 2415 at 1 ug after 72 hrs by disk diffusion method.
Experiment [29] relates to Hanseniaspora guilliermondii. Briefly: Antifungal activity against Hanseniaspora guilliermondii DSM 3432 at 1 ug after 72 hrs by disk diffusion method.
Experiment [30] relates to Debaryomyces hansenii. The experiment can be described thus: Antifungal activity against Debaryomyces hansenii DSM 70238 after 48 hrs by twofold serial dilution method.
Experiment [31] relates to Debaryomyces hansenii. Briefly: Antifungal activity against Debaryomyces hansenii DSM 70238 at 1 ug after 72 hrs by disk diffusion method.
For the next experiment, the system named is Candida albicans. The experiment can be described thus: Antifungal activity against Candida albicans ATCC 10231 after 48 hrs by twofold serial dilution method.
Experiment [32] relates to Hanseniaspora guilliermondii. Briefly: Antifungal activity against Hanseniaspora guilliermondii DSM 3432 after 48 hrs by twofold serial dilution method.
Experiment [33] relates to Rhodotorula mucilaginosa. Briefly: Antifungal activity against Rhodotorula rubra DSM 70403 at 1 ug after 72 hrs by disk diffusion method.
In experiment [34] the test system is Kluyveromyces marxianus. Briefly: Antifungal activity against Kluyveromyces fragilis NRRL 2415 after 48 hrs by twofold serial dilution method.
Experiment [35] relates to Rhodotorula mucilaginosa. Briefly: Antifungal activity against Rhodotorula rubra DSM 70403 after 48 hrs by twofold serial dilution method.

On to `CC1(C)S[C@@H]2[C@H](NC(=O)Cc3ccccc3)C(=O)N2[C@H]1C(=O)O` [PENICILLIN G], for which the “inhibition zone (IZ)” value in the experiment with Pseudomonas aeruginosa [1] is 14 mm; in [2], 15 mm; in the experiment with Proteus vulgaris [3], 36 mm; in the experiment with Escherichia coli [4], 18 mm; in the experiment with Staphylococcus aureus [5] it was 13 mm; with Bacillus cereus [6], 10 mm. Also, the “inhibition zone (IZ)” value in the experiment with Listeria monocytogenes [7] amounted to 10 mm; in the experiment with Micrococcus luteus [8], 8 mm; in the experiment on Klebsiella pneumoniae [9] it was 18 mm.
On to `CN[C@H](CC(C)C)C(=O)N[C@H]1C(=O)N[C@@H](CC(N)=O)C(=O)N[C@H]2C(=O)N[C@H]3C(=O)N[C@H](C(=O)N[C@H](C(=O)O)c4cc(O)cc(O)c4-c4cc3ccc4O)[C@H](O)c3ccc(c(Cl)c3)Oc3cc2cc(c3O[C@@H]2O[C@H](CO)[C@@H](O)[C@H](O)[C@H]2O[C@H]2C[C@](C)(N)[C@H](O)[C@H](C)O2)Oc2ccc(cc2Cl)[C@H]1O` [VANCOMYCIN], for which the zone of inhibition at 1 µg/disc in the experiment with Micrococcus luteus [10] is 10 mm; in the experiment with Klebsiella pneumoniae [11], 22 mm; with Escherichia coli [12], 22 mm; with Listeria monocytogenes [13], 26 mm; in the experiment with Pseudomonas aeruginosa [14], 18 mm; in the experiment with Bacillus cereus [15], 20 mm. Besides, the zone of inhibition at 1 µg/disc with Proteus vulgaris [16] is 34 mm; in experiment [17], 20 mm; in the experiment on Staphylococcus aureus [18], 13 mm.
On to GENTAMICIN, for which the minimal inhibitory concentration (MIC) in the experiment on Klebsiella pneumoniae [19] worked out at 6.25 mg/L; in experiment [20], 12.5 mg/L; with Micrococcus luteus [21], 6.25 mg/L; against Escherichia coli [22], 6.25 mg/L; in the experiment on Listeria monocytogenes [23], 12.5 mg/L; against Proteus vulgaris [24], 25 mg/L. For the same molecule, the values for the MIC with Staphylococcus aureus [25], in the experiment with Bacillus cereus [26] and against Pseudomonas aeruginosa [27] were 25 mg/L, 6.25 mg/L and 6.25 mg/L, respectively.
As to NYSTATIN, the inhibition zone (IZ) with Kluyveromyces marxianus [28] came to 18 mm; in experiment [29], 21 mm; in the experiment with Debaryomyces hansenii [31], 16 mm; in the experiment with Rhodotorula mucilaginosa [33], 20 mm. In addition, the MIC with Debaryomyces hansenii [30] stood at 12.5 mg/L; in the experiment with Candida albicans, 6.25 mg/L; in experiment [32] it was 3.12 mg/L; against Kluyveromyces marxianus [34], 6.25 mg/L; against Rhodotorula mucilaginosa [35], 3.12 mg/L.
